Tests used:
Assay in all cases: relative viability (nuclei count vs DMSO), 5 days (fraction); higher = more cells survive
[1] = compound: CC(=O)Nc1cccc(-n2c(=O)n(C3CC3)c(=O)c3c(Nc4ccc(I)cc4F)n(C)c(=O)c(C)c32)c1 [Trametinib] + CC1(C)CCC(c2ccc(Cl)cc2)=C(CN2CCN(c3ccc(C(=O)NS(=O)(=O)c4ccc(N[C@H](CCN5CCOCC5)CSc5ccccc5)c(S(=O)(=O)C(F)(F)F)c4)cc3)CC2)C1 [Navitoclax] (partner 0.5 µM)
How it was run: (§1)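 Values are medians from duplicate plates. Each reflects relative viability, defined as the nuclei count of treated wells over that of vehicle wells. Lung cancer cell lines in 1536-well plates were pin-tool dosed one day after seeding with one drug alone or with a fixed anchor-drug dose plus five library-drug doses (not always all listed) in √10 steps, then fixed, stained and imaged at 4× after 5 days.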

[2] = compound: CC(=O)Nc1cccc(-n2c(=O)n(C3CC3)c(=O)c3c(Nc4ccc(I)cc4F)n(C)c(=O)c(C)c32)c1 [Trametinib] + C[C@@H](Oc1cc(-c2cnn(C3CCNCC3)c2)cnc1N)c1c(Cl)ccc(F)c1Cl [Crizotinib] (partner 1 µM)
How it was run: as §1

[3] = compound: CC(=O)Nc1cccc(-n2c(=O)n(C3CC3)c(=O)c3c(Nc4ccc(I)cc4F)n(C)c(=O)c(C)c32)c1 [Trametinib] + Cc1cc(Nc2cc(N3CCN(C)CC3)nc(Sc3ccc(NC(=O)C4CC4)cc3)n2)n[nH]1 [Tozasertib] (partner 0.1 µM)
How it was run: as §1

[4] = compound: CN1C=C(C2=CC=CC=C21)/C=C\3/C4=C(C=CC=N4)NC3=O + Nc1nc2[nH]cc(CCc3ccc(C(=O)N[C@@H](CCC(=O)O)C(=O)O)cc3)c2c(=O)[nH]1 [Pemetrexed] (partner 0.2 µM)
How it was run: as §1

Cell Line	relative viability ([1]; first compound 0.0025 µM)	relative viability ([1]; first compound 0.007906 µM)	relative viability ([1]; first compound 0.025 µM)	relative viability ([1]; first compound 0.07906 µM)	relative viability ([1]; first compound 0.25 µM)	relative viability ([2]; first compound 0.0025 µM)	relative viability ([2]; first compound 0.007906 µM)	relative viability ([2]; first compound 0.025 µM)	relative viability ([2]; first compound 0.07906 µM)	relative viability ([2]; first compound 0.25 µM)	relative viability ([3]; first compound 0.0025 µM)	relative viability ([3]; first compound 0.007906 µM)	relative viability ([3]; first compound 0.025 µM)	relative viability ([3]; first compound 0.07906 µM)	relative viability ([3]; first compound 0.25 µM)	relative viability ([4]; first compound 0.02 µM)	relative viability ([4]; first compound 0.06325 µM)	relative viability ([4]; first compound 0.2 µM)	relative viability ([4]; first compound 0.6325 µM)	relative viability ([4]; first compound 2 µM)
HCC-78	0.728	0.591	0.558	0.624	0.42	0.318	0.275	0.252	0.285	0.215	0.426	0.416	0.38	0.452	0.36	0.907	0.945	0.951	0.903	0.913
SK-LU-1	0.971	0.929	0.65	0.337	0.296	0.976	0.87	0.775	0.619	0.371	0.301	0.309	0.286	0.264	0.181	0.736	0.919	0.898	1.03	0.946
H3255	0.468	0.316	0.251	0.161	0.18	0.845	0.931	0.799	0.715	0.48	0.572	0.777	0.579	0.514	0.411	0.578	0.549	0.493	0.615	0.54
LOU-NH91	0.657	0.528	0.57	0.448	0.32	0.722	0.667	0.714	0.636	0.501	0.639	0.609	0.592	0.548	0.399	0.368	0.387	0.365	0.348	0.372
NCI-H1666	0.613	0.64	0.375	0.456	0.393	0.74	0.766	0.72	0.586	0.394	0.589	0.546	0.602	0.541	0.475	0.896	0.861	0.847	0.765	0.737
SK-MES-1	1.3	1.25	0.943	0.624	0.357	0.997	0.991	0.792	0.543	0.334	0.955	0.921	0.745	0.466	0.361	0.846	0.856	0.687	0.954	0.852
NCI-H2023	0.864	0.825	0.877	0.549	0.33	0.597	0.543	0.475	0.442	0.247	0.232	0.262	0.26	0.232	0.199	0.274	0.171	–	0.25	0.2
COR-L 105	0.594	0.517	0.417	0.387	0.324	0.729	0.605	0.374	0.329	0.285	0.287	0.387	0.338	0.31	0.223	1.07	0.969	1.12	1.28	1.3
NCI-H838	1.05	0.973	–	1.01	0.718	0.786	0.689	–	0.572	0.411	0.275	0.24	0.225	0.217	0.22	0.249	0.235	0.234	0.247	0.246
SW 1573	0.723	0.885	0.609	0.546	0.404	0.781	0.603	0.601	0.518	0.462	0.179	0.147	0.191	0.129	0.143	0.785	0.806	0.788	0.93	0.906
